Measured values as given in patent US20190160049A1, “2-OXO-1,2-DIHYDROPYRIDINE-3-CARBOXAMIDE COMPOUNDS AND THEIR USE AS DUAL INHIBITORS OF PDK1/AURA” (INTERNATIONAL SOCIETY FOR DRUG DEVELOPMENT S.R.L., priority 2016, published 2019).

Experiments:
CSC neurospheres = experiment: Sphere-derived cell morphology (neurosphere area, outgrowth of cellular processes); format: cell-based; conditions: seven days, SA16 10 nM, 1 μM, 10 μM
Protocol: FIG. 5 illustrates the effects of SA16 on sphere-derived cell morphology of Example 3c. CSCs were treated for seven days with complete NSC medium containing DMSO (control), or SA16 (10 nM, 1 μM, 10 μM) (A) Representative cell micrographs of control and SA16 (10 μM) after seven days of treatment are shown. The area of the culture plates occupied by the spheres (B) and the length of cellular processes (C) were scored after seven days of treatment. The counts represent the mean values±SEM of two independent experiments. The significance of differences was determined with a one-way ANOVA with Bonferroni post-test: * p<0.05, ** p<0.01, *** p<0.001 vs. control cells.
FIG. 7 illustrates the effects of MP7, Alisertib and of their combined treatment on sphere-derived cell morphology of example 3c. CSCs were treated for seven days with complete NSC medium containing DMSO (control), MP7 and/or alisertib (A) Representative cell micrographs after seven days of treatment are shown. The area of the culture plates occupied by the spheres (B) and the length of cellular processes (C) were scored after seven days of treatment. The counts represent the mean values±SEM of two independent experiments. The significance of differences was determined with a one-way ANOVA with Bonferroni post-test: * p<0.05, *** p<0.001 vs. control cells; ## p<0.01 vs. cells treated with MP7 alone; § p<0.05 vs. cells treated with Alisertib alone.
The effects of SA16 on morphology of neurospheres were evaluated by quantifying the area occupied by the cells in culture plates, as well as the outgrowth of cellular processes.
The inventors then evaluated the effects of MP7, Alisertib and of their combination on CSC differentiation. The cells were incubated with […] MP7, alone or in combination with 1.5 μM Alisertib for seven days.

U87MG cells = experiment: U87MG cell proliferation, MTS assay; format: cell-based; conditions: 72 h
Protocol: FIG. 1 illustrates the effects of SA16 on U87MG cell proliferation of example 3 (a). U87MG cells were treated in complete medium with different concentrations of SA16 (1 nM-100 μM) for 72 h. At the end of treatment, cell proliferation was measured using the MTS assay. The data are expressed as a percentage with respect to that of untreated cells (control), which was set to 100%, and are the mean values±SEM of three independent experiments, each performed in duplicate. The significance of the differences was determined with a one-way ANOVA with Bonferroni post-test: * p<0.05, ** p<0.01, *** p<0.001 vs. control cells;
FIG. 2 illustrates the combined inhibition of PDK1 and Aurora A on U87MG cell proliferation of example 3a. U87MG cells were treated in complete medium with different concentrations of MP7, in the presence or absence of Alisertib, for 72 h. At the end of treatment, cell proliferation was measured using the MTS assay. The data are expressed as a percentage with respect to that of untreated cells (control), which was set to 100%, and are the mean values±SEM of three independent experiments, each performed in duplicate. The significance of the differences was determined with a one-way ANOVA with Bonferroni post-test: * p<0.05, *** p<0.001 vs. control cells; ## p<0.01, ### p<0.001 vs. cells treated with MP7 alone; §§ p<0.01, § § § p<0.001 vs. cells treated with Alisertib alone;
To examine the effects of SA16 on U87MG cell growth/survival, U87MG cells were incubated with different concentrations of the compound SA16 (1 nM-10 μM) for 72 h.
In parallel experiments, U87MG proliferation was assessed in the presence of a well-known PDK1 inhibitor MP7, alone or in combination with the Aurora A inhibitor, Alisertib.

[1] = system: cancer stem cell (CSC) neurospheres obtained from U87MG cells; experiment: CSC (GBM stem cell) proliferation, MTS assay; format: cell-based
Protocol: FIG. 3 illustrates the effects of SA16 on CSC proliferation of example 3b. CSCs were treated in complete neurosphere medium with different concentrations of SA16 (1 nM-100 μM) for seven days. At the end of treatment, cell proliferation was measured using the MTS assay. The data are expressed as a percentage with respect to that of untreated cells (control), which was set to 100%, and are the mean values±SEM of three independent experiments, each performed in duplicate. IC50 value after seven days of treatment were calculated from sigmoid dose-response curve;
FIG. 4 illustrates combined inhibition of PDK1 and Aurora A on CSCs proliferation of example 3b. CSCs were treated in complete medium with different concentrations of MP7, in the presence or absence of Alisertib, for seven days. At the end of treatment, cell proliferation was measured using the MTS assay.
The data are expressed as a percentage with respect to that of untreated cells (control), which was set to 100%, and are the mean values±SEM of three independent experiments, each performed in duplicate. The significance of the differences was determined with a one-way ANOVA with Bonferroni post-test: * p<0.05, *** p<0.001 vs. control cells; ## p<0.01, ### p<0.001 vs. cells treated with MP7 alone; §§ p<0.01, § § § p<0.001 vs. cells treated with Alisertib alone;
The inventors also examined the effects of SA16 compound on cancer stem cell (CSC) neurospheres obtained from U87MG cells.

AurA = target: T1, AurA (Homo sapiens, UniProt O14965); experiment: FRET-based Z'-LYTE kinase assay against AurA; format: biochemical; conditions: for IC50 / inhibition at 10 µM: Z'-LYTE assay; for inhibition at 10 µM: 10μM compound
T1 construct: purchased Invitrogen Corporation, Life Technologies
T1 sequence (O14965 1-403): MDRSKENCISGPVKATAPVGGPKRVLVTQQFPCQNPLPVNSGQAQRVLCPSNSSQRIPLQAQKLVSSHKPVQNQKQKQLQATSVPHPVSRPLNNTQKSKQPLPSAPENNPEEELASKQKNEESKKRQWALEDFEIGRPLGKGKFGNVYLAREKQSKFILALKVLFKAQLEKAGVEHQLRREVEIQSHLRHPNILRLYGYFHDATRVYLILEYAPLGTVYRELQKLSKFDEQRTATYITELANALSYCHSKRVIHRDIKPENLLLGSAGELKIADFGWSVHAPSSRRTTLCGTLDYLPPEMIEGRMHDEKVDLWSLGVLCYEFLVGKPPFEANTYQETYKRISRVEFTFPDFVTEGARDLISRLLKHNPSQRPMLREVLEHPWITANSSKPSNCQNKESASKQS
Protocol: (§1) The compounds of Formula (I) were tested in the biological test named Kinase-specific Z′-LYTE® assay (Invitrogen Corporation, Life Technologies).

PDK1 = target: T2, PDK1 (Homo sapiens, UniProt O15530); experiment: FRET-based Z'-LYTE kinase assay against PDK1; format: biochemical
T2 construct: purchased Invitrogen Corporation, Life Technologies
T2 sequence (O15530 1-556): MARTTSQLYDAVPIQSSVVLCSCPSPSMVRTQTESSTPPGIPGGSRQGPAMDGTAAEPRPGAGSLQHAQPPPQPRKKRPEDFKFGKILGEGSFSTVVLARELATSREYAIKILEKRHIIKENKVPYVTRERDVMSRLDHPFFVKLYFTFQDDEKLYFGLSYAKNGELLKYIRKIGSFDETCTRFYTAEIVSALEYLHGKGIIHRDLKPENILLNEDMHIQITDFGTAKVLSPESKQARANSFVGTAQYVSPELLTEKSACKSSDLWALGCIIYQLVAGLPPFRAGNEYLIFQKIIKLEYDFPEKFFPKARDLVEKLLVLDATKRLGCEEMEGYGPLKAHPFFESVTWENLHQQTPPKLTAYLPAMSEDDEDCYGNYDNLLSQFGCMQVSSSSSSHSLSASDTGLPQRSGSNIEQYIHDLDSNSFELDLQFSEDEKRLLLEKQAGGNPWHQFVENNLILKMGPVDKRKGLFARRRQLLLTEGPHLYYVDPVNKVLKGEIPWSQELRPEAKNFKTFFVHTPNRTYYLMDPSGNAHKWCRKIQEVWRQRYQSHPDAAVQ
Protocol: as §1

Row | SMILES | IC50 (AurA) [nM] | IC50 (PDK1; Z'-LYTE assay) [nM] | further results
1 | COc1cc(Nc2ncc3c(n2)-c2ccc(Cl)cc2C(c2c(F)cccc2OC)=NC3)ccc1C(=O)O [Alisertib, 4-{[9-Chloro-7-(2-fluoro-6-methoxyphenyl)-5H-pyrimido[5,4-d][2]benzazepin-2-yl]amino}-2-methoxybenzoic acid] | – | – | outgrowth of cellular processes (CSC neurospheres; 1.5 μM Alisertib): modest but significant outgrowth of cellular processes; area occupied by the neurospheres (CSC neurospheres; 2.5 PIM MP7, 1.5 μM Alisertib): reduction in the area occupied by the neurospheres; effect on U87MG cell proliferation (in words) (U87MG cells): slightly reduced U87MG cell proliferation; effect on CSC proliferation (in words) ([1]; seven days): anti-proliferative effects on CSCs, in a concentration-dependent manner
2 | Cc1ccc(C(=O)N[C@@H](C(=O)Nc2ccc3c(c2)/C(=C/c2cnc[nH]2)C(=O)N3)c2ccccc2)c(=O)n1Cc1ccc(F)c(F)c1 [Compound V18, (R,Z)—N-(2-((3-((1H-imidazol-5-yl)methylene)-2-oxoindolin-5-yl)amino)-2-oxo-1-phenylethyl)-1-(3,4-difluorobenzyl)-6-methyl-2-oxo-1,2-dihydropyridine-3-carboxamide] | 69.8 | 148 | –
3 | Cc1c(Br)cc(C(=O)N[C@@H](C(=O)Nc2ccc3c(c2)/C(=C/c2cnc[nH]2)C(=O)N3)c2ccccc2)c(=O)n1Cc1ccc(F)c(F)c1 [Compound V118, (R,Z)—N-(2-((3-((1H-imidazol-5-yl)methylene)-2-oxoindolin-5-yl)amino)-2-oxo-1-phenylethyl)-5-bromo-1-(3,4-difluorobenzyl)-6-methyl-2-oxo-1,2-dihydropyridine-3-carboxamide] | 118 | 475 | –
4 | Cc1c(Br)cc(C(=O)NCC(=O)Nc2ccc3c(c2)/C(=C/c2cnc[nH]2)C(=O)N3)c(=O)n1Cc1ccc(F)c(F)c1 [Compound V123, (Z)—N-(2-((3-((1H-imidazol-5-yl)methylene)-2-oxoindolin-5-yl)amino)-2-oxoethyl)-5-bromo-1-(3,4-difluorobenzyl)-6-methyl-2-oxo-1,2-dihydropyridine-3-carboxamide] | – | 134 | inhibition at 10 µM (AurA): 52%
5 | O=C(CCNC(=O)c1cccn(Cc2ccc(F)c(F)c2)c1=O)Nc1ccc2c(c1)/C(=C/c1cnc[nH]1)C(=O)N2 [DD21, (Z)—N-(3-((3-((1H-imidazol-5-yl)methylene)-2-oxoindolin-5-yl)amino)-3-oxopropyl)-1-(3,4-difluorobenzyl)-2-oxo-1,2-dihydropyridine-3-carboxamide] | 2470 | 103 | –
6 | O=C(CCCNC(=O)c1cccn(Cc2ccc(F)c(F)c2)c1=O)Nc1ccc2c(c1)/C(=C/c1cnc[nH]1)C(=O)N2 [DF8, (Z)—N-(4-((3-((1H-imidazol-5-yl)methylene)-2-oxoindolin-5-yl)amino)-4-oxobutyl)-1-(3,4-difluorobenzyl)-2-oxo-1,2-dihydropyridine-3-carboxamide] | 611 | 245 | inhibition of AurA kinase (in words) (AurA): best effects; inhibition of PDK1 kinase (in words) (PDK1): best effects
7 | O=C(CNC(=O)c1cccn(Cc2ccc(F)c(F)c2)c1=O)Nc1ccc2c(c1)/C(=C/c1cnc[nH]1)C(=O)N2 [IB35, (Z)—N-(2-((3-((1H-imidazol-5-yl)methylene)-2-oxoindolin-5-yl)amino)-2-oxoethyl)-1-(3,4-difluorobenzyl)-2-oxo-1,2-dihydro pyridine-3-carboxamide] | 289 | – | –
8 | O=C1Nc2ccc(NC(=O)[C@H](NC(=O)c3cccn(Cc4ccc(F)c(F)c4)c3=O)c3ccccc3)cc2/C1=C/c1cnc[nH]1 [SA16, (Z)—(R)—N-(2-((3-((1H-imidazol-5-yl)methylene)-2-oxoindolin-5-yl)amino)-2-oxo-1-phenylethyl)-1-(3,4-difluorobenzyl)-2-oxo-1,2-dihydropyridine-3-carboxamide] | 35 | – | maximal percentage of inhibition of U87MG cell proliferation (U87MG cells; 1 nM-10 μM): 49.4±2%; IC50 ([1]; Homo sapiens, U-87 MG, 168 h, seven days of treatment, read-out: IC50 of inhibition of GSC proliferation): 8.33 ± 0.78 nM; maximal percentage of inhibition of GSC proliferation ([1]; seven days of treatment): 80.0±2.0%
9 | Cc1ccc(C(=O)NCC(=O)Nc2ccc3c(c2)/C(=C/c2cnc[nH]2)C(=O)N3)c(=O)n1Cc1ccc(F)c(F)c1 [SST200, (Z)—N-(2-((3-((1H-imidazol-5-yl)methylene)-2-oxoindolin-5-yl)amino)-2-oxoethyl)-1-(3,4-difluorobenzyl)-6-methyl-2-oxo-1,2-dihydropyridine-3-carboxamide] | 193 | 103 | –
10 | O=C(CNC(=O)c1cc2cccnc2n(Cc2ccc(F)c(F)c2)c1=O)Nc1ccc2c(c1)/C(=C/c1cnc[nH]1)C(=O)N2 [SST201, (Z)—N-(2-((3-((1H-imidazol-5-yl)methylene)-2-oxoindolin-5-yl)amino)-2-oxoethyl)-1-(3,4-difluorobenzyl)-2-oxo-1,2-dihydro-1,8-naphthyridine-3-carboxamide] | – | – | inhibition at 10 µM (AurA): 43%; inhibition at 10 µM (PDK1; 10μM compound, Z'-LYTE assay): 35%
